What was measured:
nPfu DNA polymerase = molecular target: T1, nPfu DNA polymerase (Pyrococcus furiosus, UniProt P61875); test: PCR using nPfu with oxalate ion and betaine (Example 2-2); assay type: biochemical; conditions: 2 mM potassium oxalate, FIG. 12
T1 construct: α-Type Enzyme (Native Pfu); purchased STRATAGENE
T1 sequence (P61875 1-775): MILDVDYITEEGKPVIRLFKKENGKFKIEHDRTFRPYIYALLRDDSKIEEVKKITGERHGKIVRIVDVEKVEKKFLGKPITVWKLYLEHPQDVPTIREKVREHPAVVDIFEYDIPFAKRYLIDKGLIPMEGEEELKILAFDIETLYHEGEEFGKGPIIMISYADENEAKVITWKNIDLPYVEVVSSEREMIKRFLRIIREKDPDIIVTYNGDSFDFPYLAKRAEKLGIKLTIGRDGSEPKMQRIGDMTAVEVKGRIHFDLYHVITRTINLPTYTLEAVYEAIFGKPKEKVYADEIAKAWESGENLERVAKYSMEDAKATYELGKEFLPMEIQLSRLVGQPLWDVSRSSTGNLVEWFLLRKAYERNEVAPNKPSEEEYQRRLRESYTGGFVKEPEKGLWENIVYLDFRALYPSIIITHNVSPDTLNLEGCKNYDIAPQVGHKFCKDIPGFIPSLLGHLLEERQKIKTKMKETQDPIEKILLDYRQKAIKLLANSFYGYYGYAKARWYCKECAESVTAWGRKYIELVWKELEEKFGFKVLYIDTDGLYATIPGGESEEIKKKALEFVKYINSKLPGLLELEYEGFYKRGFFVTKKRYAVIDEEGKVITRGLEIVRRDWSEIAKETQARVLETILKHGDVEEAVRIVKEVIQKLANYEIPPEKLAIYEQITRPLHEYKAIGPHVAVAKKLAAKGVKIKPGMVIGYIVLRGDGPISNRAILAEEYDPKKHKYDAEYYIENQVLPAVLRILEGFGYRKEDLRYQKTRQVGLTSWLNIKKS
Protocol: Oxalate ion and betaine were investigated for their synergistic effectiveness in amplification of a target DNA which cannot be usually amplified by PCR using nPfu polymerase. Potassium oxalate was added to the PCR buffer (20 mM Tris-HCl(pH: 8.75), 10 mM KCl, 10 mM (NH4)2SO4, 2 mM MgSO41 0.1% Triton X-100, 100 μg/ml BSA) supplied with nPfu (STRATAGENE) to attain a final concentration of 2 mM. Also used were 0.2 mM dNTPs, 0.3 μM of a pair of primers of SEQ ID Nos:16 and 17, and 2.5 U nPfu DNA polymerase. 20 ng of genomic DNA derived from human cell line K562 was used as a template. This reaction mixture was subjected to PCR by using GeneAmp2400 (PE Applied Biosystems) to investigate the influence of varying the concentration of betaine added on the PCR results. The PCR conditions were as follows: 1 preliminary cycle of 94° C. for 2 minutes, and then 35 cycles of 94° C. for 15 seconds, 60° C. for 30 seconds and 68° C. for 8.5 minutes.

KOD-plus DNA polymerase [1] = molecular target: T2, KOD-plus DNA polymerase (Thermococcus kodakarensis, UniProt P77933, DEL407-766/DEL853-1389); test: PCR using KOD-plus with oxalate ion and betaine (Example 2-3); assay type: biochemical, Thermococcus kodakaraensis KOD1; conditions: 2 mM potassium oxalate, FIG. 13
T2 construct: purchased Toyobo
T2 sequence (P77933 other isoform, or with tags, fused parts or gaps DEL407-766/DEL853-1389): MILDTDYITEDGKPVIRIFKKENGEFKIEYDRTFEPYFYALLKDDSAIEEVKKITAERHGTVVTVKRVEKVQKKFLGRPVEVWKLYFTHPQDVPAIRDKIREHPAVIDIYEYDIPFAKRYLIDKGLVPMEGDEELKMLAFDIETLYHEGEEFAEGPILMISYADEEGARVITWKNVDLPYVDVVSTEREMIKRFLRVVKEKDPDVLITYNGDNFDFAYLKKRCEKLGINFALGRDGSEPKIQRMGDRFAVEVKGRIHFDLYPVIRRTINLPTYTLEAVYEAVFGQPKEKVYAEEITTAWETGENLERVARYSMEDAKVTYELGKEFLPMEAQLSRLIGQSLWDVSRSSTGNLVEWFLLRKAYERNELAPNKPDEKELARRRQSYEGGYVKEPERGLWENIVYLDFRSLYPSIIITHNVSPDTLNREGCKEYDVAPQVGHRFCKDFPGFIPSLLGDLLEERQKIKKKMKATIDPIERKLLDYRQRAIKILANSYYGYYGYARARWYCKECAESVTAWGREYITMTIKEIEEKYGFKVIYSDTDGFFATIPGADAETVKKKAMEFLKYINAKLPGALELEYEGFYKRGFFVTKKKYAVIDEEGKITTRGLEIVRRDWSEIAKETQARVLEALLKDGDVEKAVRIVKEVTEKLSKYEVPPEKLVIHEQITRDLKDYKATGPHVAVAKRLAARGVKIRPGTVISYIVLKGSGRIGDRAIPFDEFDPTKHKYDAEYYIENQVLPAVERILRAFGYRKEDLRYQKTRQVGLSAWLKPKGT
Protocol: Oxalate ion and betaine were investigated for their synergistic effectiveness in amplification of a target DNA which cannot be amplified by normal PCR, using KOD-plus DNA polymerase, i.e. a hot start enzyme which is a mixture of KOD (α-type enzyme) and two kinds of KOD antibodies. Potassium oxalate was added to the PCR buffer supplied with KOD-plus (TOYOBO CO., LTD.) to attain a final concentration of 2 mM. Also used were 0.2 mM dNTPs and 0.3 μM of a pair of primers of SEQ ID NOs: 14 and 15. 20 ng of genomic DNA derived from human cell line K562 was used as a template. This reaction mixture was subjected to PCR by using GeneAmp2400 (PE Applied Biosystems) to investigate the influence of varying the concentration of betaine on the PCR results. The PCR conditions were as follows: 1 preliminary reaction of 94° C. for 2 minutes, and then 35 cycles of 94° C. for 15 seconds, 60° C. for 30 seconds and 68° C. for 8.5 minutes.

KOD-plus DNA polymerase [2] = molecular target: T2, KOD-plus DNA polymerase; assay type: biochemical, Thermococcus kodakaraensis KOD1; conditions: salt at 6 mM of ion equivalent, FIG. 9
KOD-plus DNA polymerase [3] = molecular target: T2, KOD-plus DNA polymerase; assay type: biochemical, Thermococcus kodakaraensis KOD1
Protocol: The effect produced by the addition of oxalate ion to a hot start enzyme was investigated using a hot start enzyme KOD-plus DNA polymerase containing KOD α-type enzyme) and two kinds of KOD antibodies. The PCR buffer supplied with KOD-plus (manufactured by Toyobo), 0.2 mM dNTPs and 0.3 μM of a primer pair of SEQ ID Nos:8 and 9 were used. PCR was performed using 2.5 U KOD-plus DNA polymerase and 20 ng of Genomic DNA derived from human cell line K562 as a template to investigate the influence of varying the concentration of oxalate ion added on the PCR results. The PCR conditions were as follows: 1 preliminary reaction of 94° C. for 2 minutes, and then 35 cycles of 94° C. for 15 seconds, 60° C. for 30 seconds and 68° C. for 8.5 minutes. The PCR was performed using GeneAmp2400 (PE Applied Biosystems).

C[N+](C)(C)CC(=O)[O-] [betaine, trimethylglycine]
amplification of target DNA (nPfu DNA polymerase): amplification of the target DNA was observed
betaine concentration at which the amount of amplification was greatest (KOD-plus DNA polymerase [1]): 1.5 M
betaine concentration giving an increased amount of amplification of the target DNA (KOD-plus DNA polymerase [1]): 0.5 to 1.5 M

O=C([O-])C(=O)[O-].[K+].[K+] [potassium oxalate]
amplification of target DNA (electrophoresis pattern) (KOD-plus DNA polymerase [2]): Amplification was observed
amount of the target DNA amplified (KOD-plus DNA polymerase [3]; 5 mM of potassium oxalate): a decrease in the amount of the target DNA amplified was found
optimal concentration of potassium oxalate (KOD-plus DNA polymerase [3]; FIG. 8): about 3 mM
effect on extra bands and target amplification (KOD-plus DNA polymerase [3]; in the presence of potassium oxalate, FIG. 8): no extra bands were observed and only the target DNA was amplified

From patent US20050069887A1, “Dna synthesis promoters dna polymerase-associated factors and utilization thereof” (priority 2001, published 2005)
